Reference: PubChem BioAssay (NCI)
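GI50 marks 50% less growth. At the TGI there is no net growth.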

Assays:
Assay in all cases: inhibition of tumour cell growth, NCI panel, 384-well format
[1] = test system: 786-0 renal
[2] = test system: A498 renal
[3] = test system: A549 NSCLC
[4] = test system: ACHN renal
[5] = test system: BT-549 breast
[6] = test system: CAKI-1 renal
[7] = test system: CCRF-CEM leukemia
[8] = test system: COLO 205 colon
[9] = test system: DU-145 prostate
[10] = test system: EKVX NSCLC
[11] = test system: HCC-2998 colon
[12] = test system: HCT-15 colon
[13] = test system: HL-60(TB) leukemia
[14] = test system: HOP-62 NSCLC
[15] = test system: HS 578T breast
[16] = test system: HT29 colon
[17] = test system: IGROV1 ovarian
[18] = test system: K-562 leukemia
[19] = test system: KM12 colon
[20] = test system: LOX IMVI melanoma
[21] = test system: M14 melanoma
[22] = test system: MALME-3M melanoma
[23] = test system: MCF7 breast
[24] = test system: MDA-MB-435 melanoma
[25] = test system: MDA-MB-468 breast
[26] = test system: NCI-H226 lung
[27] = test system: NCI-H23 lung
[28] = test system: NCI-H322M lung
[29] = test system: NCI-H460 NSCLC
[30] = test system: NCI-H522 lung
[31] = test system: NCI/ADR-RES ovarian
[32] = test system: OVCAR-3 ovarian
[33] = test system: OVCAR-4 ovarian
[34] = test system: OVCAR-5 ovarian
[35] = test system: OVCAR-8 ovarian
[36] = test system: PC-3 prostate
[37] = test system: RPMI-8226 leukemia
[38] = test system: RXF 393 renal
[39] = test system: SF-268 CNS
[40] = test system: SF-295 CNS
[41] = test system: SF-539 CNS
[42] = test system: SK-MEL-28 melanoma
[43] = test system: SK-MEL-5 melanoma
[44] = test system: SK-OV-3 ovarian
[45] = test system: SN12C renal
[46] = test system: SNB-19 CNS
[47] = test system: SNB-75 CNS
[48] = test system: SW-620 colon
[49] = test system: T-47D breast
[50] = test system: TK-10 renal
[51] = test system: U251 glioblastoma
[52] = test system: UACC-257 melanoma
[53] = test system: UACC-62 melanoma
[54] = test system: UO-31 renal

In the case of `CCS(=O)(=O)c1cccc(-c2cc(C(=O)NC3CCN(C)CC3)c(C)c3[nH]c4ncc(C)cc4c23)c1`, the GI50 [1] is reported as 1000 nM, the TGI [1] is reported as 2460 nM and the GI50 [2] is reported as 1400 nM. The TGI [2] was 5500 nM, the GI50 [3] was 58 nM and the TGI [3] was 1200 nM. It also gave a GI50 [4] of 2370 nM, a TGI [4] of 13200 nM and a GI50 [5] of 144 nM. The TGI [5] was 326 nM, the GI50 [6] was 328 nM and the TGI [6] was 5340 nM. For the same molecule, the TGI [7] was 12.1 nM, the GI50 [8] was 18.3 nM and the TGI [8] was 98.1 nM. It also gave a GI50 [9] of 343 nM, a TGI [9] of 4340 nM and a GI50 [10] of 270 nM. It also gave a TGI [10] of 1930 nM, a GI50 [11] of 168 nM and a TGI [11] of 1240 nM. It also gave a GI50 [12] of 3960 nM, a TGI [12] of 19800 nM and a GI50 [13] of 31.8 nM. For the same molecule, the TGI [13] was 126 nM, the GI50 [14] was 161 nM and the TGI [14] was 1290 nM. For the same molecule, the GI50 [15] was 58.1 nM, the TGI [15] was 216 nM and the GI50 [16] was 215 nM. The TGI [16] was 10500 nM, the GI50 [17] was 40.8 nM and the TGI [17] was 230 nM. It also gave a GI50 [18] of 32.2 nM, a TGI [18] of 761 nM and a GI50 [19] of 24.2 nM. It also gave a TGI [19] of 1110 nM, a GI50 [20] of 84.9 nM and a TGI [20] of 229 nM. The GI50 [21] was 437 nM, the TGI [21] was 2040 nM and the GI50 [22] was 240 nM. The TGI [22] was 1460 nM, the GI50 [23] was 12.6 nM and the TGI [23] was 2130 nM. It also gave a GI50 [24] of 366 nM, a TGI [24] of 1900 nM and a GI50 [25] of 17.9 nM. For the same molecule, the TGI [25] was 88.6 nM, the GI50 [26] was 39.2 nM and the TGI [26] was 441 nM. It also gave a GI50 [27] of 66.9 nM, a TGI [27] of 343 nM and a GI50 [28] of 541 nM. It also gave a TGI [28] of 2440 nM, a GI50 [29] of 36.2 nM and a TGI [29] of 1080 nM. It also gave a GI50 [30] of 19.4 nM, a TGI [30] of 126 nM and a GI50 [31] of over 100000 nM. For the same molecule, the TGI [31] was over 100000 nM, the GI50 [32] was 103 nM and the TGI [32] was 298 nM. It also gave a GI50 [33] of 953 nM, a TGI [33] of 5040 nM and a GI50 [34] of 185 nM. It also gave a TGI [34] of 827 nM, a GI50 [35] of 309 nM and a TGI [35] of 1490 nM. For the same molecule, the GI50 [36] was 219 nM, the TGI [36] was 2710 nM and the GI50 [37] was 49.7 nM. For the same molecule, the TGI [37] was 226 nM, the GI50 [38] was 112 nM and the TGI [38] was 384 nM. The GI50 [39] was 17.8 nM, the TGI [39] was 91.1 nM and the GI50 [40] was 399 nM. For the same molecule, the TGI [40] was 3610 nM, the GI50 [41] was 59 nM and the TGI [41] was 233 nM. The GI50 [42] was 279 nM, the TGI [42] was 1300 nM and the GI50 [43] was 264 nM. It also gave a TGI [43] of 1680 nM, a GI50 [44] of 135 nM and a TGI [44] of 869 nM. It also gave a GI50 [45] of 51.5 nM, a TGI [45] of 267 nM and a GI50 [46] of 192 nM. The TGI [46] was 1390 nM, the GI50 [47] was 101 nM and the TGI [47] was 226 nM. For the same molecule, the GI50 [48] was 181 nM, the TGI [48] was 1250 nM and the GI50 [49] was 59.2 nM. For the same molecule, the TGI [49] was 270 nM, the GI50 [50] was 1740 nM and the TGI [50] was 5520 nM. For the same molecule, the GI50 [51] was 202 nM, the TGI [51] was 902 nM and the GI50 [52] was 139 nM. It also gave a TGI [52] of 935 nM, a GI50 [53] of 158 nM and a TGI [53] of 1120 nM. It also gave a GI50 [54] of 5480 nM and a TGI [54] of 19100 nM.
